Results published in article PMC9168183 (Redox Biology, 2022).

Biological target: T1, thioredoxin reductase (TrxR) (Rattus norvegicus, UniProt O89049)
T1 sequence (O89049 1-499): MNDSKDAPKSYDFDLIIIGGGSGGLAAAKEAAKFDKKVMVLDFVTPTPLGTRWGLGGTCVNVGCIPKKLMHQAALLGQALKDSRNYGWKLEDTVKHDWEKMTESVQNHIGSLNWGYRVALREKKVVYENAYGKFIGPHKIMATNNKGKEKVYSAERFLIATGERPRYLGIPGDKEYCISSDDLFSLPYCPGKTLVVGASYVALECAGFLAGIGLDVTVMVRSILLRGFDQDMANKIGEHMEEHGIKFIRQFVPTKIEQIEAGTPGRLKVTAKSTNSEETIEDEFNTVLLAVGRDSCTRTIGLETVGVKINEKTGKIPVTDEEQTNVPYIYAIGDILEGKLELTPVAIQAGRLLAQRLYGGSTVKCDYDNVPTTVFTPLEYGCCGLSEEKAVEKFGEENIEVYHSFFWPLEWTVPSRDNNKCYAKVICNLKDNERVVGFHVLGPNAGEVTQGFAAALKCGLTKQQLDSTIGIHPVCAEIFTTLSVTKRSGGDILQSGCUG
Experiment: DTNB assay with isolated TrxR, % inhibition at […]
Format: biochemical
Conditions: read-out: Isolated TrxR (Inhibition %)

inhibition at 50 µM [%] | Structure (SMILES)
76.9 | O=C(/C=C/c1ccc(O)cc1)c1ccc(O)cc1O [compound 4, Isoliquiritigenin]
79.7 | C=C1C(=O)O[C@@H]2C[C@@]3(C)CCCC(=C)[C@@H]3C[C@H]12 [compound 5, Isoalantolactone]
